# Test results as given in publication PMC11984407, “A natural small molecule isoginkgetin alleviates hypercholesterolemia and atherosclerosis by targeting ACLY” (Theranostics, 2025).
# Key:
# [1] = system: primary hepatocytes from C57BL/6J mouse; test: CCK8 cell viability, primary hepatocytes; type: cell-based; conditions: concentrations below 7.5 μmol/L, 12 h
# Protocol: The cellular viability was assessed by conducting CCK8 assays in primary hepatocytes from C57BL/6J mouse and HepG2 cell line. Specifically, 2,000 cells per well were plated in 96-well plates and cultured with different concentrations of ISOGK for 12 h. Following this, cell absorption was quantified using a CCK8 kit (CA1210, Solarbio, Beijing, China), adhering strictly to the manufacturer's guidelines. The presented data represents the findings from three independent experiments, with each experiment consisting of four replicates.
# C57BL/6J mice = test: Safety assessment in normal C57BL/6J mice; type: in vivo, mouse; conditions: 20 mg/kg/day i.p., 4 weeks, male C57BL/6J
# [2] = system: LDLR and ACLY protein levels; test: Western blot of LDLR and ACLY in Huh-7 cells; type: cell-based, human; conditions: Huh-7, various concentrations
# Protocol: (§1) Western blotting was performed as previously described. In brief, whole-cell lysates from cultured cells and animal tissue were prepared using 1× sample buffer, followed by boiling at 95 °C for 10 min. Subsequently, SDS-PAGE was employed to separate the samples, which were then transferred onto a nitrocellulose membrane (Pall, NY, USA). Subsequently, the membrane was incubated in a blocking buffer for one h at room temperature. Following the removal of the blocking buffer, the blots were incubated with primary antibodies (1:1,000 dilution) at 4 °C overnight. The membrane was washed thrice for 10 min each, using 1× Tris-buffered saline with 0.1% Tween-20 (TBST). Subsequently, the membranes were incubated with IRDye® 680RD Goat anti-Mouse IgG (H + L) or IRDye® 800CW Goat anti-Rabbit IgG (H + L) (1:10,000 dilution, LI-COR, Lincoln, Nebraska, USA) at room temperature for 1 h. Visualization of the blots was carried out using the Li-COR CLx infrared imaging system. GAPDH (60004-1-Ig, Proteintech, Chicago, IL, USA), ACLY (67166-1-Ig, Proteintech, Chicago, IL, USA), LDLR (10785-1-AP, Proteintech, Chicago, IL, USA), β-Actin (66009-1-Ig, Proteintech, Chicago, IL, USA), AMPK (10929-2-AP, Proteintech, Chicago, IL, USA), p-AMPK^T172 (2535, Cell Signaling Technology, Danvers, MA, USA).
# AMPK = test: Western blot of p-AMPK in AML12 and HepG2 cells; type: cell-based; conditions: 5 µM, 12 h after 50 µM palmitic acid
# Protocol: as §1
# Apoe-/- mice = test: Liver Acly knockdown by GalNAc-siAcly in Apoe-/- mice; type: in vivo, mouse
# Protocol: Conjugating siRNA with N-acetylgalactosamine (GalNAc) is a promising strategy for depleting target gene expression specifically in the liver. […] In this study, we employed GalNAc-siAcly to knock down Acly in the liver of Apoe^-/- mice that were fed high cholesterol diet for 15 weeks. ISOGK was administered starting from the 7th week for 8 additional weeks (Figure 7A). […] The qRT-PCR results also supported the same conclusion (Figure S7A).
# Figure 7 The anti-atherosclerotic and lipid-lowering effects of isoginkgetin in Apoe^-/- mice were ACLY-dependent. (A) Scheme of study design. Briefly, male Apoe^-/- mice were induced by high cholesterol diet for 7 weeks and administrated GalNAc-siAcly (3 mg/kg/month). Animals then received ISOGK (20 mg/kg/day) treatment for another 8 weeks. (B) Immunoblotting analysis and quantification of ACLY protein in liver and kidney tissues from indicated groups (n = 3). One-way ANOVA followed by Bonferroni's post hoc test. (C) Representative images of Oil Red O staining of en face aortas from male Apoe^-/- mice fed high cholesterol diet. (D) Representative images of ORO staining of the aortic sinus from male Apoe^-/- mice fed high cholesterol diet. (E) Representative images of H&E staining of the aortic sinus from male Apoe^-/- mice fed High cholesterol diet. (F) Quantitative analysis of C-E (n = 6 - 8). One-way ANOVA followed by Bonferroni's post hoc test. (G) Plasma levels of TC, TG, LDL-C and HDL-C in the indicated groups (n = 6 - 8). One-way ANOVA followed by Bonferroni's post hoc test. The data are means ± SEM, n.s., not significant, *P < 0.05, **P < 0.01, ***P < 0.001, ****P < 0.0001.
smiles,measurement,setting,value
"COc1ccc(-c2cc(=O)c3c(O)cc(O)c(-c4cc(-c5cc(=O)c6c(O)cc(O)cc6o5)ccc4OC)c3o2)cc1 [ISOGK, Isoginkgetin]",cytotoxicity (CCK-8),[1],no significant cytotoxicity
same,"H&E staining of heart, liver, spleen, lungs, kidneys",C57BL/6J mice,no histological differences
same,PAS staining of kidney tissues,C57BL/6J mice,no significant difference in glycogen deposits
same,body weight vs vehicle,C57BL/6J mice,no statistically significant differences
same,fasting blood glucose (FBG) vs vehicle,C57BL/6J mice,no statistically significant differences
same,lactate dehydrogenase (LDH),C57BL/6J mice,no variation
same,ratio of liver weight to body weight,C57BL/6J mice,no significant change
same,"serum ALT, AST, ALP, BUN, CREA, CK, CK-MB vs vehicle",C57BL/6J mice,did not induce any significant difference
same,LDLR and ACLY protein levels,[2],no significant change in the LDLR and ACLY protein levels
same,p-AMPK protein expression,AMPK,activate AMPK
same,effect on atherosclerosis in aortic sinus,Apoe-/- mice; Acly knockdown Apoe-/- mice,not observed
same,"lipid-lowering effect (plasma TC, TG, LDL-C, HDL-C)",Apoe-/- mice; Acly knockdown Apoe-/- mice,not further observed
same,aortic plaque area,"Apoe-/- mice; Acly knockdown group (GalNAc-siAcly), 20 mg/kg/day",not decreased further
same,aortic sinus lesion areas and necrotic core area,"Apoe-/- mice; control Apoe-/- mice, 20 mg/kg/day",significantly reduced
same,size of aortic plaques vs vehicle,"Apoe-/- mice; control Apoe-/- mice, 20 mg/kg/day, 8 weeks",significantly lower
